# Reference: publication PMC10175095 (Therapeutic drug monitoring, 2023)
# Tests used:
# [1] = Freeze-thaw stability of unprocessed plasma samples; format: in vitro ADME; settings: human plasma, 3 freeze (-80°C)-thaw cycles
# [2] = Reinjection stability in final extract; format: physicochemical; settings: reinjected, 4°C, autosampler, 25.95 h
# [3] = Pre-processed stability in human plasma; format: in vitro ADME; settings: 2.5 h
# [4] = Processed sample stability in final extract; format: physicochemical; settings: 4°C, autosampler, 25.1 h
# [5] = Long-term stability of unprocessed plasma samples at −80°C; format: in vitro ADME; settings: human plasma
# [6] = requires confirmation in prospective studies; cited from earlier work
# [7] = RT (20–25°C), yellow light, nominal 15 ng/mL
# [8] = RT (20–25°C), yellow light, nominal 1500 ng/mL
structure (smiles),measurement,setting,value
"CC(=O)c1c(C)c2cnc(Nc3ccc(N4CCNCC4)cn3)nc2n(C2CCCC2)c1=O [Palbociclib, palbociclib]",Accuracy vs fresh QCs,[1]; nominal 15 ng/mL,98.1%
same,Accuracy vs. nominal concentration,[1]; nominal 15 ng/mL,99.8%
same,Mean measured concentration,[1]; nominal 15 ng/mL,15.0 ng/mL
same,Accuracy vs fresh QCs,[1]; nominal 1500 ng/mL,98.7%
same,Accuracy vs. nominal concentration,[1]; nominal 1500 ng/mL,96.9%
same,Mean measured concentration,[1]; nominal 1500 ng/mL,1453 ng/mL
same,Accuracy vs fresh QCs,[2]; nominal 15 ng/mL,100%
same,Accuracy vs. nominal concentration,[2]; nominal 15 ng/mL,112%
same,Mean measured concentration,[2]; nominal 15 ng/mL,16.7 ng/mL
same,Accuracy vs fresh QCs,[2]; nominal 150 ng/mL,99.0%
same,Accuracy vs. nominal concentration,[2]; nominal 150 ng/mL,106%
same,Mean measured concentration,[2]; nominal 150 ng/mL,160 ng/mL
same,Accuracy vs fresh QCs,[2]; nominal 1500 ng/mL,100%
same,Mean measured concentration,[2]; nominal 1500 ng/mL,1473 ng/mL
same,Accuracy vs fresh QCs,"[3]; 37°C, dark, nominal 15 ng/mL",94.8%
same,Accuracy vs. nominal concentration,"[3]; 37°C, dark, nominal 15 ng/mL",103%
same,Mean measured concentration,"[3]; 37°C, dark, nominal 15 ng/mL",15.4 ng/mL
same,Accuracy vs fresh QCs,"[3]; 37°C, dark, nominal 1500 ng/mL",102%
same,Accuracy vs. nominal concentration,"[3]; 37°C, dark, nominal 1500 ng/mL",99.3%
same,Mean measured concentration,"[3]; 37°C, dark, nominal 1500 ng/mL",1490 ng/mL
same,Accuracy vs fresh QCs,[3]; [7],95.6%
same,Accuracy vs. nominal concentration,[3]; [7],104%
same,Mean measured concentration,[3]; [7],15.5 ng/mL
same,Accuracy vs fresh QCs,[3]; [8],102%
same,Accuracy vs. nominal concentration,[3]; [8],99.6%
same,Mean measured concentration,[3]; [8],1493 ng/mL
same,Accuracy vs fresh QCs,[4]; nominal 15 ng/mL,99.0%
same,Accuracy vs. nominal concentration,[4]; nominal 15 ng/mL,110%
same,Mean measured concentration,[4]; nominal 15 ng/mL,16.5 ng/mL
same,Accuracy vs fresh QCs,[4]; nominal 1500 ng/mL,100%
same,Accuracy vs. nominal concentration,[4]; nominal 1500 ng/mL,98.7%
same,Mean measured concentration,[4]; nominal 1500 ng/mL,1480 ng/mL
same,Accuracy vs fresh QCs,"[5]; 3 months, nominal 15 ng/mL",94.0%
same,Accuracy vs. nominal concentration,"[5]; 3 months, nominal 15 ng/mL",99.8%
same,Mean measured concentration,"[5]; 3 months, nominal 15 ng/mL",15.0 ng/mL
same,Accuracy vs fresh QCs,"[5]; 3 months, nominal 150 ng/mL",92.8%
same,Accuracy vs. nominal concentration,"[5]; 3 months, nominal 150 ng/mL",102%
same,Mean measured concentration,"[5]; 3 months, nominal 150 ng/mL",153 ng/mL
same,Accuracy vs fresh QCs,"[5]; 3 months, nominal 1500 ng/mL",92.8%
same,Accuracy vs. nominal concentration,"[5]; 3 months, nominal 1500 ng/mL",96.0%
same,Mean measured concentration,"[5]; 3 months, nominal 1500 ng/mL",1440 ng/mL
same,Accuracy vs fresh QCs,"[5]; 7 months, nominal 15 ng/mL",92.1%
same,Accuracy vs. nominal concentration,"[5]; 7 months, nominal 15 ng/mL",101.3%
same,Mean measured concentration,"[5]; 7 months, nominal 15 ng/mL",15.2 ng/mL
same,Accuracy vs fresh QCs,"[5]; 7 months, nominal 150 ng/mL",85.7%
same,Accuracy vs. nominal concentration,"[5]; 7 months, nominal 150 ng/mL",109%
same,Mean measured concentration,"[5]; 7 months, nominal 150 ng/mL",163 ng/mL
same,Accuracy vs fresh QCs,"[5]; 7 months, nominal 1500 ng/mL",91.6%
same,Accuracy vs. nominal concentration,"[5]; 7 months, nominal 1500 ng/mL",92.2%
same,Mean measured concentration,"[5]; 7 months, nominal 1500 ng/mL",1383 ng/mL
same,Accuracy vs fresh QCs,"[5]; 12 months, nominal 15 ng/mL",96.4%
same,Accuracy vs. nominal concentration,"[5]; 12 months, nominal 15 ng/mL",104%
same,Mean measured concentration,"[5]; 12 months, nominal 15 ng/mL",15.6 ng/mL
same,Accuracy vs fresh QCs,"[5]; 12 months, nominal 150 ng/mL",95.3%
same,Accuracy vs. nominal concentration,"[5]; 12 months, nominal 150 ng/mL",105%
same,Mean measured concentration,"[5]; 12 months, nominal 150 ng/mL",157 ng/mL
same,Accuracy vs fresh QCs,"[5]; 12 months, nominal 1500 ng/mL",87.0%
same,Accuracy vs. nominal concentration,"[5]; 12 months, nominal 1500 ng/mL",108%
same,Mean measured concentration,"[5]; 12 months, nominal 1500 ng/mL",1613 ng/mL
"CN(C)C(=O)c1cc2cnc(Nc3ccc(N4CCNCC4)cn3)nc2n1C1CCCC1 [Ribociclib, ribociclib]",Accuracy vs fresh QCs,[1]; nominal 15 ng/mL,98.3%
same,Accuracy vs. nominal concentration,[1]; nominal 15 ng/mL,100%
same,Mean measured concentration,[1]; nominal 15 ng/mL,15.0 ng/mL
same,Accuracy vs fresh QCs,[1]; nominal 1500 ng/mL,97.1%
same,Accuracy vs. nominal concentration,[1]; nominal 1500 ng/mL,97.1%
same,Mean measured concentration,[1]; nominal 1500 ng/mL,1457 ng/mL
same,Accuracy vs fresh QCs,[2]; nominal 15 ng/mL,97.8%
same,Accuracy vs. nominal concentration,[2]; nominal 15 ng/mL,110%
same,Mean measured concentration,[2]; nominal 15 ng/mL,16.5 ng/mL
same,Accuracy vs fresh QCs,[2]; nominal 150 ng/mL,101%
same,Accuracy vs. nominal concentration,[2]; nominal 150 ng/mL,107%
same,Mean measured concentration,[2]; nominal 150 ng/mL,161 ng/mL
same,Accuracy vs fresh QCs,[2]; nominal 1500 ng/mL,101%
same,Accuracy vs. nominal concentration,[2]; nominal 1500 ng/mL,100%
same,Mean measured concentration,[2]; nominal 1500 ng/mL,1503 ng/mL
same,Accuracy vs fresh QCs,"[3]; 37°C, dark, nominal 15 ng/mL",97.8%
same,Accuracy vs. nominal concentration,"[3]; 37°C, dark, nominal 15 ng/mL",106%
same,Mean measured concentration,"[3]; 37°C, dark, nominal 15 ng/mL",15.9 ng/mL
same,Accuracy vs fresh QCs,"[3]; 37°C, dark, nominal 1500 ng/mL",102%
same,Accuracy vs. nominal concentration,"[3]; 37°C, dark, nominal 1500 ng/mL",100%
same,Mean measured concentration,"[3]; 37°C, dark, nominal 1500 ng/mL",1500 ng/mL
same,Accuracy vs fresh QCs,[3]; [7],98.0%
same,Accuracy vs. nominal concentration,[3]; [7],106%
same,Mean measured concentration,[3]; [7],15.9 ng/mL
same,Accuracy vs fresh QCs,[3]; [8],102%
same,Accuracy vs. nominal concentration,[3]; [8],100%
same,Mean measured concentration,[3]; [8],1503 ng/mL
same,Proposed target Cmin for TDM,[6],711 ng/mL
same,Accuracy vs fresh QCs,[4]; nominal 15 ng/mL,99.2%
same,Accuracy vs. nominal concentration,[4]; nominal 15 ng/mL,112%
same,Mean measured concentration,[4]; nominal 15 ng/mL,16.7 ng/mL
same,Accuracy vs fresh QCs,[4]; nominal 1500 ng/mL,99.8%
same,Accuracy vs. nominal concentration,[4]; nominal 1500 ng/mL,98.7%
same,Mean measured concentration,[4]; nominal 1500 ng/mL,1480 ng/mL
same,Accuracy vs fresh QCs,"[5]; 3 months, nominal 15 ng/mL",106%
same,Accuracy vs. nominal concentration,"[5]; 3 months, nominal 15 ng/mL",102%
same,Mean measured concentration,"[5]; 3 months, nominal 15 ng/mL",15.3 ng/mL
same,Accuracy vs fresh QCs,"[5]; 3 months, nominal 150 ng/mL",105%
same,Accuracy vs. nominal concentration,"[5]; 3 months, nominal 150 ng/mL",98.7%
same,Mean measured concentration,"[5]; 3 months, nominal 150 ng/mL",148 ng/mL
same,Accuracy vs fresh QCs,"[5]; 3 months, nominal 1500 ng/mL",104%
same,Accuracy vs. nominal concentration,"[5]; 3 months, nominal 1500 ng/mL",94.2%
same,Mean measured concentration,"[5]; 3 months, nominal 1500 ng/mL",1413 ng/mL
same,Accuracy vs fresh QCs,"[5]; 7 months, nominal 15 ng/mL",90.3%
same,Accuracy vs. nominal concentration,"[5]; 7 months, nominal 15 ng/mL",98.4%
same,Mean measured concentration,"[5]; 7 months, nominal 15 ng/mL",14.8 ng/mL
same,Accuracy vs fresh QCs,"[5]; 7 months, nominal 150 ng/mL",86.0%
same,Accuracy vs. nominal concentration,"[5]; 7 months, nominal 150 ng/mL",106%
same,Mean measured concentration,"[5]; 7 months, nominal 150 ng/mL",160 ng/mL
same,Accuracy vs fresh QCs,"[5]; 7 months, nominal 1500 ng/mL",88.8%
same,Accuracy vs. nominal concentration,"[5]; 7 months, nominal 1500 ng/mL",93.6%
same,Mean measured concentration,"[5]; 7 months, nominal 1500 ng/mL",1403 ng/mL
same,Accuracy vs fresh QCs,"[5]; 12 months, nominal 15 ng/mL",107%
same,Accuracy vs. nominal concentration,"[5]; 12 months, nominal 15 ng/mL",105%
same,Mean measured concentration,"[5]; 12 months, nominal 15 ng/mL",15.7 ng/mL
same,Accuracy vs fresh QCs,"[5]; 12 months, nominal 150 ng/mL",105%
same,Accuracy vs. nominal concentration,"[5]; 12 months, nominal 150 ng/mL",108%
same,Mean measured concentration,"[5]; 12 months, nominal 150 ng/mL",161 ng/mL
same,Accuracy vs fresh QCs,"[5]; 12 months, nominal 1500 ng/mL",101%
same,Accuracy vs. nominal concentration,"[5]; 12 months, nominal 1500 ng/mL",108%
same,Mean measured concentration,"[5]; 12 months, nominal 1500 ng/mL",1613 ng/mL
"CCN1CCN(Cc2ccc(Nc3ncc(F)c(-c4cc(F)c5nc(C)n(C(C)C)c5c4)n3)nc2)CC1 [Abemaciclib, abemaciclib]",Mean measured concentration,[1]; nominal 15 ng/mL,15.1 ng/mL
same,Accuracy vs fresh QCs,[1]; nominal 1500 ng/mL,98.8%
same,Accuracy vs. nominal concentration,[1]; nominal 1500 ng/mL,98.7%
same,Mean measured concentration,[1]; nominal 1500 ng/mL,1480 ng/mL
same,Accuracy vs fresh QCs,[2]; nominal 15 ng/mL,98.2%
same,Mean measured concentration,[2]; nominal 15 ng/mL,16.4 ng/mL
same,Accuracy vs fresh QCs,[2]; nominal 150 ng/mL,98.7%
same,Mean measured concentration,[2]; nominal 150 ng/mL,155 ng/mL
same,Accuracy vs fresh QCs,[2]; nominal 1500 ng/mL,103%
same,Mean measured concentration,[2]; nominal 1500 ng/mL,1527 ng/mL
same,Accuracy vs fresh QCs,"[3]; 37°C, dark, nominal 15 ng/mL",97.5%
same,Mean measured concentration,"[3]; 37°C, dark, nominal 15 ng/mL",15.4 ng/mL
same,Mean measured concentration,"[3]; 37°C, dark, nominal 1500 ng/mL",1527 ng/mL
same,Accuracy vs fresh QCs,[3]; [7],99.4%
same,Mean measured concentration,[3]; [7],15.7 ng/mL
same,Mean measured concentration,[3]; [8],1550 ng/mL
same,Proposed target Cmin for TDM,[6],200 to 210 ng/mL
same,Accuracy vs fresh QCs,[4]; nominal 15 ng/mL,95.6%
same,Mean measured concentration,[4]; nominal 15 ng/mL,15.9 ng/mL
same,Accuracy vs fresh QCs,[4]; nominal 1500 ng/mL,102%
same,Mean measured concentration,[4]; nominal 1500 ng/mL,1510 ng/mL
same,Accuracy vs fresh QCs,"[5]; 3 months, nominal 15 ng/mL",98.6%
same,Mean measured concentration,"[5]; 3 months, nominal 15 ng/mL",14.7 ng/mL
same,Accuracy vs fresh QCs,"[5]; 3 months, nominal 150 ng/mL",95.5%
same,Mean measured concentration,"[5]; 3 months, nominal 150 ng/mL",149 ng/mL
same,Accuracy vs fresh QCs,"[5]; 3 months, nominal 1500 ng/mL",95.6%
same,Mean measured concentration,"[5]; 3 months, nominal 1500 ng/mL",1437 ng/mL
same,Mean measured concentration,"[5]; 7 months, nominal 15 ng/mL",14.1 ng/mL
same,Accuracy vs fresh QCs,"[5]; 7 months, nominal 150 ng/mL",98.9%
same,Mean measured concentration,"[5]; 7 months, nominal 150 ng/mL",156 ng/mL
same,Accuracy vs fresh QCs,"[5]; 7 months, nominal 1500 ng/mL",97.5%
same,Mean measured concentration,"[5]; 7 months, nominal 1500 ng/mL",1443 ng/mL
same,Mean measured concentration,"[5]; 12 months, nominal 15 ng/mL",15.2 ng/mL
same,Accuracy vs fresh QCs,"[5]; 12 months, nominal 150 ng/mL",99.0%
same,Mean measured concentration,"[5]; 12 months, nominal 150 ng/mL",164 ng/mL
same,Accuracy vs fresh QCs,"[5]; 12 months, nominal 1500 ng/mL",96.6%
same,Mean measured concentration,"[5]; 12 months, nominal 1500 ng/mL",1583 ng/mL
